Results reported in patent publication US20080227792A1, “3,4-Dihydro-1H-Isoquinoline-2-Carboxylic Acid 5-Aminopyridin-2-Yl Esters” (Novo Nordisk A/S, priority 2005, published 2008).

Tests used:
[1] = biological target: T1, hormone sensitive lipase (HSL) (Homo sapiens, UniProt Q05469); test: 3190.2: Assay for determination of IC50 value for the inhibition of hormone sensitive lipase; format: biochemical; details: fluorochrome-labeled triacylglyceride substrate; 30 min pre-incubation at 25° C., 120 min incubation at 37° C.; 4PL fit
T1 construct: made in house
T1 sequence (Q05469 1-1076): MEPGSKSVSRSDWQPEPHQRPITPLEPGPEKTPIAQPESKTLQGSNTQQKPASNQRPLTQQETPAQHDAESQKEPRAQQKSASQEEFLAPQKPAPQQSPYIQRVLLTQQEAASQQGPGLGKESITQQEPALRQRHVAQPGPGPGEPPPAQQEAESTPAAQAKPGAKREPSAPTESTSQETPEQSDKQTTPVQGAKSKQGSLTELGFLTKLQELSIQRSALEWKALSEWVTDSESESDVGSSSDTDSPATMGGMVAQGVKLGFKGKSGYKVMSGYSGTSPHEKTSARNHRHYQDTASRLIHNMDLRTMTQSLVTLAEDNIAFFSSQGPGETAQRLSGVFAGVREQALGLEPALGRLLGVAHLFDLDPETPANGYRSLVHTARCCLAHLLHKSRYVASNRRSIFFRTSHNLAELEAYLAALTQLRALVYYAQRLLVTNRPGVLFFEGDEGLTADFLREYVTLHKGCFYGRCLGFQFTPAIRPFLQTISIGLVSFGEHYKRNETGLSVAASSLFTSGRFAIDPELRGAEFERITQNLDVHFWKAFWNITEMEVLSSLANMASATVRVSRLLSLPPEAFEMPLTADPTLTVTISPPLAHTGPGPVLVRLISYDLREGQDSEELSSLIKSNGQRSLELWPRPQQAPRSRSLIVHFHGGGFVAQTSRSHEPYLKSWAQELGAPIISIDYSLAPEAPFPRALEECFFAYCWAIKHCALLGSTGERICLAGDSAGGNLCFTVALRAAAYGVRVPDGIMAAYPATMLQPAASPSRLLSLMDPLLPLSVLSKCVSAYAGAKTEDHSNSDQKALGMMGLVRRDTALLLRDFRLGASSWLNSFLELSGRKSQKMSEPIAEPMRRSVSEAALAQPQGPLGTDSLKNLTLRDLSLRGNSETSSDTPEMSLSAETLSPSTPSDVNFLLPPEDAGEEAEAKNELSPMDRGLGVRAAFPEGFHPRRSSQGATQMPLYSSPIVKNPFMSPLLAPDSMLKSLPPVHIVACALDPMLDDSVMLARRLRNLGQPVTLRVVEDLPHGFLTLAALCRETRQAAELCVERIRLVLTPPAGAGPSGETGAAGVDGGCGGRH
Description: Materials. The Hormone-sensitive lipase was provided by Dr. Cecilia Holm, from Lund University Sweden or produced and purified by Novo Nordisk (NN) using the reagents and protocols used by Dr. Holm. The substrates used are: ^3H-labeled triolein (TO) from Amersham, Buckinghamshire, U.K. cat o. TRA191; 5-20 Ci/mmol dissolved in toluene, triolein (Sigma, Cat. No. T-1740), fluorochrome-labeled triacylglyceride (cis-octadec-9-enoic acid 2-[12-(7-nitrobenzo[1,2,5]oxadiazol-4-ylamino)-dodecanoyloxy]-1-cis-octadec-9-enoyloxymethylethyl ester) prepared by Novo Nordisk (NN) by conventional methods, and 1,3-(di[^3H]-stearin), 2-(PEG-Biotin)glycerol prepared in collaboration with Amersham Pharmacia Biotech, UK and described in WO 01/073442. Phosphatidyl choline (PC) and phosphatidyl inositol (PI) are from Sigma (St Luis Mo. cat. Nos. P-3556 and P-5954, respectively). All other reagents are of commercial grade and obtained from various commercial sources.
3190.2: Assay for determination of IC50 value for the inhibition of hormone sensitive lipase by compound. Standard concentrations of compound are 100 μM and 5-fold dilutions (initial concentration corresponding to 10 μM final concentration and 5-fold).
A lipid emulsion with fluorochrome-labeled triacylglyceride and phospholipid is used as substrate with a standard concentration of highly purified HSL (12 μg/mL initial concentration corresponding to 600 ng/mL final concentration). BSA is added as product acceptor. The transfer of the fluorochrome from the lipid phase to the water (BSA) phase changes the fluorescent properties of the fluorochrome. The changes can be monitored on a fluorimeter with an excitation wavelength of 450 nm and an emission wavelength of 545 nm.
Compound and HSL (20 μL compound, 10 μL enzyme and 70 μL PED-BSA buffer) is pre-incubated for 30 min at 25° C. before addition of substrate (100 μL). Amount of formed product is measured after 120 min incubation at 37° C.
Results are given as IC50 values after 4PL fit of obtained activity data.

Row | IC50 [1] | melting point | Compound
1 | 400 nM | 156 to 158 °C | CC1(C)CC(=O)N(c2ccc(OC(=O)N3CCc4ccccc4C3)nc2)C(=O)C1 [Example 1, 3,4-Dihydro-1H-isoquinoline-2-carboxylic acid 4,4-dimethyl-2,6-dioxo-3,4,5,6-tetrahydro-2H-[1,3′]bi-pyridinyl-6′-yl ester]
2 | 40 nM | – | O=C(Oc1ccc(N2C(=O)CC3(CCCC3)CC2=O)cn1)N1CCc2ccccc2C1 [Example 3, 3,4-Dihydro-1H-isoquinoline-2-carboxylic acid 5-(7,9-dioxo-8-azaspiro[4.5]dec-8-yl)pyridin-2-yl ester]

Row | Compound | IC50 [1] | melting point
3 | O=C(Oc1ccc(NC2=NC3(CCCC3)CS2)cn1)N1CCc2ccccc2C1 [Example 4, 3,4-Dihydro-1H-isoquinoline-2-carboxylic acid 5-(3-thia-1-azaspiro[4.4]non-1-en-2-ylamino)-pyridin-2-yl ester] | 400 nM | –
